One data set concerns VCaP cells. Details: method as in printed. As to conditions: reviewer comment, ref not given; cited from earlier work.
The next data set relates to HeLa cells. Nature of the data set: Flow cytometry (propidium iodide, sub-G1). Format: cell-based. Particulars: 1 µM, 48 h. The method, then: Cell death and cell cycle arrest were quantified by staining cells with propidium iodide for flow cytometry with a BD FACSCalibur (BD Biosciences) according to the manufacturer’s instructions. […] Cells were collected by centrifugation and fixed in 70% ethanol at 4 °C for 24 h. Cells were washed with PBS and stained with propidium iodide (10 µg/mL) with RNAse treatment at 37 °C for 30 min. DNA content at each cell cycle checkpoint was measured and analyzed using BD CellQuest Pro (BD Biosciences) and ModFit LT Systems (Verity Software House).
(In general: In flow cytometry, cells or beads pass a laser one at a time.)

Data set [1] deals with U87-MG glioblastoma cells. Nature of the data set: Wound healing assay in U87-MG cells. The format is cell-based. Particulars: as early as 4 h and up to 24 h post-scratch. The protocol:
To analyze cell migration in two dimensions, U-87 MG or ACHN cells were plated to a monolayer. Cells were scratched with a sterile 10 μl pipette tip and the debris was removed using medium. Cells were treated with compounds and incubated for different time to monitor cell behavior. Photographs were obtained using a microscope at different time point.

Data set [2] addresses T1, methionine aminopeptidase 2 (MetAP2) (Homo sapiens, UniProt P50579).
T1 construct: Targeted autophagic degradation of endogenous oncoproteins by AUTOTAC; endogenous in cells; host or cells: HEK293 / HEK293T, U87-MG
Nature of the data set: Western blot degradation of MetAP2. The format is cell-based. As to conditions: for DC50: read-out: DC50 for MetAP2. The protocol:
Adherent cells were washed with phosphate-buffered saline (PBS) and cell pellets were lysed in SDS-based sample buffer (277.8 mM Tris-HCI, pH 6.8, 4.4% LDS, 44.4% (v/v) glycerol) containing beta-mercaptoethanol. Alternatively, cell pellets or protein supernatants were lysed in 5X Laemmli sample buffer. Whole-cell lysates were separated using SDS-PAGE, and transferred onto polyvinyllidene difluoride membranes at 100 V for 2 h at 4 °C. The membrane was incubated with a blocking solution consisting 4% skim milk in PBS solution for 30 min at room temperature and incubated with primary antibodies overnight, followed by incubation with host-specific HRP-conjugated secondary antibodies (1:10000 dilution). For signal detection, the membrane was developed with a mixture of ECL solution (Thermo Fisher Scientific) using X-ray films. Densitometry of developed bands was measured and analyzed with ImageJ (NIH, Bethesda).
Background: In western blotting, separated proteins are transferred to a membrane and probed.

For another data set, the target named is T2, NBR1 (Homo sapiens, UniProt Q14596).
T2 construct: pulldown assay in HEK293T cells using biotinylated YOK-2204; endogenous in cells; host or cells: HEK293T cell extract
Description: Competition pulldown assay with biotinylated YOK-2204 (NBR1). As to conditions: HEK293T. The format is binding. The protocol:
(§1) A set of synthetic 12-mer peptides corresponding to the N-terminal sequences of the V-BiP (V[19]-[…]-biotin) and V-RGS4 (V^2-[…]-biotin) was C-terminally biotin-conjugated. Alternatively, biotinylated versions of YOK-1304, YT-8-8, YTK-1105, YOK-2204, and PBA were synthesized. To cross-link the above peptides with resin beads, biotin-conjugated peptides, and small molecule were mixed with high-capacity streptavidin agarose resin (Thermo Fisher Scientific) at a ratio of 0.5 mg of peptide per 1 mL of settled resin and incubated on a rotator at 4 °C overnight. After washing five times with PBS, the peptide/small molecule-bead conjugates were diluted with PBS at a 1:1 ratio. To prepare protein extracts, cells were collected by centrifugation and lysed by freezing and thawing at least 10 times in hypotonic buffer [10 mM KCl, 1.5 mM MgCl2, and 10 mM HEPES (pH 7.9)] with a protease inhibitor mix (Sigma). After centrifugation at 15,000 rpm 4 °C for 15 min, proteins were quantified using a BCA protein assay kit (Thermo Fisher Scientific). Total protein (200 μg) diluted in 300 μL of binding buffer [0.05% Tween-20, 10% glycerol, 0.2 M KCl, and 20 mM HEPES (pH 7.9)] were mixed with 50 μL of peptide/small molecule-bead resin and incubated at 4 °C for 2 h on a rotator. The protein-bound beads were collected by centrifugation at 2400 × g for 3 min and washed five times with binding buffer. […]

Another data set deals with T3, p62 (Homo sapiens, UniProt Q13501).
T3 construct: expressed in transfected cells; host or cells: HEK293T, transient; whole lysate used
Description: In vitro pulldown assay with biotinylated p62 ligands. Format: binding. Particulars: biotinylated ligand, HEK293T extracts. The protocol: A set of synthetic 12-mer peptides corresponding to the N-terminal sequences of the V-BiP (V[19]-[…]-biotin) and V-RGS4 (V^2-[…]-biotin) was C-terminally biotin-conjugated. Alternatively, biotinylated versions of YOK-1304, YT-8-8, YTK-1105, YOK-2204, and PBA were synthesized. To cross-link the above peptides with resin beads, biotin-conjugated peptides, and small molecule were mixed with high-capacity streptavidin agarose resin (Thermo Fisher Scientific) at a ratio of 0.5 mg of peptide per 1 mL of settled resin and incubated on a rotator at 4 °C overnight. After washing five times with PBS, the peptide/small molecule-bead conjugates were diluted with PBS at a 1:1 ratio. To prepare protein extracts, cells were collected by centrifugation and lysed by freezing and thawing at least 10 times in hypotonic buffer [10 mM KCl, 1.5 mM MgCl2, and 10 mM HEPES (pH 7.9)] with a protease inhibitor mix (Sigma). After centrifugation at 15,000 rpm 4 °C for 15 min, proteins were quantified using a BCA protein assay kit (Thermo Fisher Scientific). Total protein (200 μg) diluted in 300 μL of binding buffer [0.05% Tween-20, 10% glycerol, 0.2 M KCl, and 20 mM HEPES (pH 7.9)] were mixed with 50 μL of peptide/small molecule-bead resin and incubated at 4 °C for 2 h on a rotator. The protein-bound beads were collected by centrifugation at 2400 × g for 3 min and washed five times with binding buffer. The beads were resuspended in 25 μL of SDS sample buffer, heated at 95 °C for 5 min, and subjected to SDS/PAGE and immunoblotting.

Data set [3] concerns p62 and LC3 punctate structures. Nature of the data set: ICC of p62 and LC3 puncta formation and co-localization in HeLa cells. The format is cell-based. As to conditions: 2.5 μM, 24 h. The protocol:
Cells were cultured on coverslips coated with poly-L-lysine (Sigma) to observe cellular localization of proteins. Using 4% paraformaldehyde in PBS (pH 7.4), the cells were fixed for 15 min at room temperature and washed three times for 5 min with PBS. After fixing, the cells were permeabilized with 0.5% Triton X-100 in PBS solution for 15 min and washed three times with PBS for 5 min. The cells were blocked containing 2% BSA in PBS solution for 1 h at room temperature. Subsequently, the cells were incubated with primary antibody diluted in 2% BSA/PBS solution overnight at 4 °C, followed by washing the cells three times for 10 min with PBS and incubated with Alexa Fluor-conjugated secondary antibody diluted in 2% BSA/PBS for 30 min at room temperature. Using a DAPI-containing mounting medium (Vector Laboratories), the coverslips were mounted on glass slides. Confocal images were taken by laser scanning confocal microscope 510 Meta (Zeiss) and analyzed by Zeiss LSM Image Browser (ver. 4.2.0.121). […] Quantification results are shown as mean ± S.D. or S.E.M. of three independent experiments

Data set [4] in a line: WST-based cell viability assay in LNCaP cells. As to conditions: human, LNCaP cells.
For another data set, the system named is LNCaP cells. Description: WST-based cell viability assay in LNCaP cells. Particulars: LNcaP, duplicates.
Another data set has as its target T4, mutant p62^D129A (Homo sapiens, UniProt Q13501, D129A).
T4 construct: expressed in transfected cells; host or cells: HEK293T, transient; cell extract used
Description: Pulldown assay with biotinylated YOK-2204, wild-type or D129A p62-myc. As to conditions: HEK293T. The format is binding. The protocol:
as §1

In another data set the test system is E1. Details: method as in printed. Particulars: authors' reply, ref not given; cited from earlier work.
Setting [5] is: WST assay viability relative to con = 100, LNcaP, duplicates.
Where [6] appears, read: WST assay viability, AVG %, LNcaP.

This is an account of results in paper PMC8850458, “The AUTOTAC chemical biology platform for targeted protein degradation via the autophagy-lysosome system” (Nature Communications, 2022).

Several values for one entry are separate records, joined by “and”; a condition that tells them apart may be missing. Equal entries are not always repeated. Where two headings read alike, the source gives them in different places.

T1 sequence (P50579 whole entry): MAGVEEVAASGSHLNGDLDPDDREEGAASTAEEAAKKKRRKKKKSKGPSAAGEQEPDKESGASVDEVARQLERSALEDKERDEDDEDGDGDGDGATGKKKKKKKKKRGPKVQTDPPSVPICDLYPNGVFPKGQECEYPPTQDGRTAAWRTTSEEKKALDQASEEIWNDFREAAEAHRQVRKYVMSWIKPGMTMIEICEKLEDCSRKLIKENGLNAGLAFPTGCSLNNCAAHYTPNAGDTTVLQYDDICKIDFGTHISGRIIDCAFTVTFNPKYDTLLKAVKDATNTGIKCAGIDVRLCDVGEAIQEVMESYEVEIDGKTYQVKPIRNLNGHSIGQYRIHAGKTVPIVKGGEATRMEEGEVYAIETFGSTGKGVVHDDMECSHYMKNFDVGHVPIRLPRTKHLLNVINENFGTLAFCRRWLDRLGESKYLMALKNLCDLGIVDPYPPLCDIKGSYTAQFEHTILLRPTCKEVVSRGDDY
T2 sequence (Q14596 whole entry): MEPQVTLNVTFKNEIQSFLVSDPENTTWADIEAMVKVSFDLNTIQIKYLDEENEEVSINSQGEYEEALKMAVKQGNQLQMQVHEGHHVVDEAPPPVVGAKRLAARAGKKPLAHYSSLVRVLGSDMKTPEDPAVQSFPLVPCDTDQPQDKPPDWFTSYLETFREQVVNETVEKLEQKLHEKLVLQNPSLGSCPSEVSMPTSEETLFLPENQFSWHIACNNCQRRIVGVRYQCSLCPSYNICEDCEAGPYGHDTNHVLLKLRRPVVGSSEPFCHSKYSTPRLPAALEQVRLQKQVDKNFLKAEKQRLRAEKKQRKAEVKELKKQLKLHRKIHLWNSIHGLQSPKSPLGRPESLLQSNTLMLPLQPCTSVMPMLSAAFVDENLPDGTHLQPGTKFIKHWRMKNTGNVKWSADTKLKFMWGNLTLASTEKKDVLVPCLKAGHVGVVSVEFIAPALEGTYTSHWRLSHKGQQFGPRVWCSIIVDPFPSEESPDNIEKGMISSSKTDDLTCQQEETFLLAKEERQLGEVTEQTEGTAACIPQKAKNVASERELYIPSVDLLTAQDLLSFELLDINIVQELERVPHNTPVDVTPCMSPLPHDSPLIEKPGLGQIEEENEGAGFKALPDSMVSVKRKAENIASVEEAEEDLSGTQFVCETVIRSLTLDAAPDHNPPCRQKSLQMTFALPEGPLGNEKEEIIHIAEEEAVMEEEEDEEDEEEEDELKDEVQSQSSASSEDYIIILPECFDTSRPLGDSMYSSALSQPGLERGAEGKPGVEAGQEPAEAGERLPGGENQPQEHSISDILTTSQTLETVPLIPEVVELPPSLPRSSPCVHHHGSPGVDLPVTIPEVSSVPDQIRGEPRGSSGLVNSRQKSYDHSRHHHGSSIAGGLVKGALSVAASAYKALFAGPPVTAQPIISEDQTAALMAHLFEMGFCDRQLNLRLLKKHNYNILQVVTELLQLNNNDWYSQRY

For `N#Cc1ccc(O[C@H]2CC[C@H](NC(=O)c3ccc(N4CCC(CN5CCN(c6cc7c(cc6F)C(=O)N(C6CCC(=O)NC6=O)C7=O)CC5)CC4)nn3)CC2)cc1Cl` (stereo partly drawn) [ARV-110], the “IC50, proliferation assay” value in the data set on VCaP cells is “low nM range”.
As for `COC1C(OC(=O)C=CC=CC=CC=CC(=O)NCCOCCOCCNCc2cccc(OCc3ccccc3)c2)CCC2(CO2)C1C1(C)OC1CC=C(C)C` (stereo not drawn) [Fumagillin-105], the “programmed cell death (sub-G1 subpopulation)” value in the data set with HeLa cells is given as “induced programmed cell death”. In addition, the inhibition of migration result in [1] is given as “more efficiently inhibited the migration”. The “MetAP2 normalized to control, AVG %” value came out at 99.8808% in data set [2] (293T, 24 h, 1nM); 77.0205% in data set [2] (293T, 24 h, 10nM); 98.7214% in data set [2] (293T, 24 h, 100nM); 25.6004% in data set [2] (293T, 24 h, 1uM); 44.4377% in data set [2] (293T, 24 h, 2.5uM); 22.9281% in [2] (293T, 24 h, 5uM). Besides, the “MetAP2 normalized to control, AVG %” value in [2] (293T, 24 h, 10uM) is given as 19.1769%. The “Dmax, 24 hr for MetAP2” value in data set [2] (HEK293 cells) lay in the range of 1 to 10 µM. In addition, the remaining activity at 0.001 µM in [2] (HEK-293T, 24 h, 293T, 24 h, 1nM, single experiments, read-out: MetAP2 normalized to GAPDH and to control, percentage) is 98.3%. In addition, the remaining activity at 0.1 µM in data set [2] (HEK-293T, 24 h, 293T, 24 h, 100nM, single experiments, read-out: MetAP2 normalized to GAPDH and to control, percentage) is 98%. In data set [2] (HEK-293T, 24 h, 293T, 24 h, 1uM, single experiments, read-out: MetAP2 normalized to GAPDH and to control, percentage), the remaining activity at 1 µM came out at 19.3%. Also, the remaining activity at 2.5 µM in data set [2] (HEK-293T, 24 h, 293T, 24 h, 2.5uM, single experiments, read-out: MetAP2 normalized to GAPDH and to control, percentage) came to 52.8%. The DC50 (in general, the concentration at which degradation of the target reaches its halfway point) in [2] (U87-MG glioblastoma cells, 24 h) was roughly 500 nM; in [2] (HEK293 cells (legend: HEK293T), 24 h), ~700 nM and 701 nM.
Consider `CC(C)NCC(O)COc1ccc(OCCc2ccccc2)c(OCCc2ccccc2)c1` (stereo not drawn) [YOK-2204], for which the “interaction with NBR1” value at NBR1 is reported as “not NBR1”. Also, the “binding of p62 in pulldown” value at p62 is “bound”. For the same compound, in [3], the “LC3 puncta formation, AVG of cells of 50” value was found to be 44.6667; the “LC3 puncta formation, percentage AVG” value is 89.3333%; the “p62-LC3 colocalization, AVG of cells of 50” value is 37; the “p62-LC3 colocalization, percentage AVG” value was determined as 74%. In data set [3], the “p62 puncta formation, AVG of cells of 50” value was found to be 40.3333 and the “p62 puncta formation, percentage AVG” value worked out at 80.6667%. Besides, in data set [3] (single experiments), the “LC3 puncta formation, cells of 50 cells counted” value was 47 and 46 and 41; the “p62-LC3 colocalization, cells of 50 cells counted” value was 43 and 37 and 31; the “p62 puncta formation, cells of 50 cells counted” value is 43 and 37 and 41. Further, in [4] (setting [5]), the viability (as a rule, a read-out of living cells in per cent, often relative to untreated cells) at 0.01 µM is 109%; the viability at 0.1 µM is 105%; the viability at 1 µM is 105%; the viability at 10 µM was 110%. Moreover, in data set [4] (setting [5]), the viability at 50 µM came to 123% and the viability at 100 µM was 128%. Moreover, in data set [4] (setting [6]), the viability at 0.01 µM was found to be 101%, the viability at 0.1 µM was 98.5%, the viability at 1 µM came to 99.3% and the viability at 10 µM is 104%. Besides, in data set [4] (setting [6]), the viability at 50 µM worked out at 115% and the viability at 100 µM worked out at 129%. In addition, in the data set on LNCaP cells (0.01uM), the “WST assay raw reading” value was 2.286 and 1.976; the “WST assay viability relative to con = 100” value is 93.5242. For the same compound, in the data set on LNCaP cells (0.1uM), the “WST assay raw reading” value was 2.213 and 1.938; the “WST assay viability relative to con = 100” value is reported as 91.6264. In the data set with LNCaP cells (1uM), the “WST assay raw reading” value was 2.21 and 1.972; the “WST assay viability relative to con = 100” value turned out to be 93.3245. In addition, in the data set on LNCaP cells (10uM), the “WST assay raw reading” value was 2.305 and 2.064; the “WST assay viability relative to con = 100” value is listed as 97.9191. Besides, in the data set with LNCaP cells (50uM), the “WST assay raw reading” value is 2.575 and 2.249; the “WST assay viability relative to con = 100” value was found to be 107.158. Further, in the data set with LNCaP cells (100uM), the “WST assay raw reading” value is 2.662 and 2.714; the “WST assay viability relative to con = 100” value turned out to be 130.381. The “interaction with mutant p62^D129A” value on mutant p62^D129A is recorded as “severely crippled”.
With `CCOC(=O)c1ccc(N2NC(=O)/C(=C/c3ccc([N+](=O)[O-])o3)C2=O)cc1` [pyr41], in the data set with E1, the IC50 (in general, the concentration that gives 50% inhibition) is less than 10000 nM.
